Consider 1 compound from PMC5342526, “Identification of Bisindolylmaleimide IX as a potential agent to treat drug-resistant BCR-ABL positive leukemia” (Oncotarget, 2016).

Where two headings read alike, the source gives them in different places.

Data set [1] deals with γH2AX foci in MEFs. As to the kind of experiment: γH2AX DNA damage foci, immunofluorescent staining. Format: cell-based, mouse. The settings on record: 2.5 μM, 4 hrs. The procedure:
MEFs or HCT116 cells were cultured on cover slips while Baf3 cells were cultured on slides coated by 0.1mg/ml poly-L-lysine, washed with phosphate-buffered saline (PBS) twice, and then fixed in 4% paraformaldehyde (PFA), which were permeabilized with 0.1% Triton X in PBS for 30 minutes at room temperature. The primary antibodies were diluted in PBS with 1% BSA (1:200). The slides were blocked (1% BSA in PBS) for 60 minutes at room temperature, incubated with primary antibodies overnight at 4°C, and followed by secondary antibody incubation for 60 min at RT. The slides were then mounted and observed under confocal microscope (Leica, Germany). Antibodies against γH2AX were from Bethyl Corporation.

The subject of data set [2] is DNA topoisomerase. As to the kind of experiment: DNA relaxation assay with extracts of treated MEFs. Format: cell-based, mouse. The settings on record: supercoiled pBluescript plasmid DNA as template. The procedure: Bisindolylmaleimide IX and other derivatives were added to MEF cultures and 24 hrs later, the cells were washed with PBS and harvested in TNE buffer. The control and Bisindolylmaleimide IX-treated cell extracts were directly used to test the topoisomerase activity using a kit from Topogen (Port Orange, USA) following the manufacturer's protocol, or pBluescript DNA as a template. The in vitro incubation lasted 30 min at room temperature. A 2% agarose gel was run to analyze DNA unwinding (Topogen) or 0.8% gel for pBluescript DNA.

Data set [3] concerns DNA topoisomerase. Nature of the data set: in vitro DNA relaxation reaction with BaF3 cell lysates. The class given is biochemical, murine. The settings on record: 0, 2, 4 or 8 μM, pBluescript. How it is done: Figure 1 Identification of Bisindolylmaleimide IX as a genotoxic agent and a topoisomerase inhibitor A. The structures of Bisindolylmaleimide IX. B. Bisindolylmaleimide IX induced p53 expression in MEFs and HCT116 cells. Upper panel: primary MEFs were treated with 2.5 μM Bisindolylmaleimide IX for different periods of time and the cells were collected. The levels of p53 were determined by western blot. Bottom panel: HCT116 cells were treated with 2.5 μM Bisindolylmaleimide IX for different periods of time and the cells were collected. The levels of p53 were determined by western blot. C. Bisindolylmaleimide IX induced formation of DNA damage foci for γH2AX and p-Atm in MEFs. Primary MEFs were pretreated with caffeine or solvent for 2 hrs and then with 2.5 μM of Bisindolylmaleimide IX, Bisindolylmaleimide I, or Enzastaurin for 4 more hrs. γH2AX and p-Atm were detected with immunofluorescent staining using specific antibodies. D. Bisindolylmaleimide IX inhibited the topoisomerase activity assayed with pBluescript. DNA samples of pBluescript were incubated with cell lysates of MEFs, which were treated with 0, 4 or 8 μM Bisindolylmaleimide IX before being harvested. DNA samples were analyzed on agarose gels. […] DNA samples of pBluescript were incubated with cell lysates of BaF3 in the presence of 0, 2, 4 or 8 μM Bisindolylmaleimide IX. DNA samples were analyzed on agarose gels. […]

The test system of data set [4] is MEFs and HCT116 cells. As to the kind of experiment: Activation of Atm and Chk2 (DNA damage response), western blot. Format: cell-based. The conditions noted are these: 4 hrs, phosphorylation of Atm and Chk2. For orientation: A western blot detects proteins with antibodies after separation by electrophoresis.
The subject of data set [5] is Erk in BCR-ABL-expressing BaF3 cells. As to the kind of experiment: Erk activation, western blot. Format: cell-based, murine. The conditions noted are these: BCR-ABL-expressing BaF3 cells but not control cells, 4 hrs. The procedure:
(§1) Activation and expression of Erk, Mek1, and Raf were determined by western blot. B. Inhibition of Erk decreased the cell survival rates in BaF3 cells expressing BCR-ABL compared to control cells. […] C. […] N=3. Right panel: Western blot results showing that B-Raf was knocked down in these cells.

Data set [6] relates to B-Raf in BCR-ABL positive BaF3 cells. Nature of the data set: B-Raf phosphorylation, western blot. Format: cell-based, murine. The procedure: as §1
Data set [7] relates to tumors derived from HCT116. As to the kind of experiment: HCT116 carcinoma xenograft in nude mice. The class given is in vivo, mouse. The settings on record: 10 mg/kg for 7 days. The procedure: Male BALB/cASlac-nude mice (4-week-old) were purchased from Shanghai Slac Laboratory Animal C. LTD. The mice were kept in the SPF mouse facility for 1 week before being inoculated with HCT116 cells. HCT116 cells were harvested by trypsinization, counted and resuspended in PBS at the concentration of 5×10^7/ml. We injected subcutaneously 3×10^6 cells to BALB/cASlac nude mice's back. After 2 weeks, the mice were divided into 3 groups (6 mice per group) and were treated with 5-Iodotubercidin (Itu), Bisindolylmaleimide IX or solvent (PBS). The mice were weighed and the size of tumor measured. The length (L) and width (W) of the tumor were measured with a digital caliper and expressed as tumor volume (0.5L×W^2, mm^3).

The subject of data set [8] is tumors derived from BCR-ABL-expressing BaF3 cells. Nature of the data set: Subcutaneous solid tumor model in nude mice. Format: in vivo, mouse. The settings on record: 4 mg/kg. The procedure: (§2) For solid tumor models, the mice were injected with 4 mg / kg of Bisindolylmaleimide IX or solvent. The length (L) and width (W) of the tumor were measured by a digital caliper and expressed as tumor volume (0.5 L×W^2, mm^3). The body weight and the lifespan of the mice with intravenous injection of BaF3 cells were monitored every day. For B-Raf knockdown, lentivirus-mediated expressing shRNA against B-Raf was used.

Data set [9] deals with tumors derived from T315I BCR-ABL-expressing BaF3 cells. As to the kind of experiment: Subcutaneous solid tumor model in nude mice. The class given is in vivo, mouse. The conditions noted are these: 4 mg/kg. How it is done: as §2
The test system of data set [10] is MEFs. Nature of the data set: Cell cycle analysis by FACS. The conditions noted are these: 24 hrs. The class given is cell-based, mouse. The procedure:
Cells were seeded on 35-mm dishes and cultured for 24 hrs, reaching 60–70% confluency. The cells were treated with different concentrations of Bisindolylmaleimide IX for 24 or 48 hrs, harvested by trypsinization, resuspended in 200 μl PBS, and fixed in 100% ethanol overnight at 4°C. The fixed cells were pelleted by centrifugation, resuspended in 800 μl PBS containing ribonuclease A (100 μg/ml) and incubated for 30 min at 37°C. Then 10 μl propidium iodide (PI, 4 mg/ml PBS) were added to the samples, which were assessed on a FACSCalibur flow cytometer using Cell Quest software (BD Bioscience).

For data set [11], the system named is BCR-ABL BaF3 cells. Nature of the data set: cells. The settings on record: Mus musculus, BaF3, 24 h, read-out: IC50, cell survival.
The test system of data set [12] is primary MEFs. Nature of the data set: Wst-1 cell survival assay.
Method: (§3) We then evaluated the cytotoxic effect of Bisindolylmaleimide IX in MEFs and HCT116 cells. Different doses of Bisindolylmaleimide IX were applied to the cell cultures and cell survival rates and IC50 were determined with Wst-1 assay.
(§4) To measure cell survival rates after Bisindolylmaleimide IX treatment, cells were plated at 1×10^4 in 96 well plates and cultured for overnight, which were then treated with Bisindolylmaleimide IX for 48 hrs. Cell proliferation reagent WST-1 (Roche) was added to each well and was further incubated for 4 hrs at 37°C. The absorbance was measured against a control using microplate reader at 440 nm. The reference wavelength was 630 nm.
The test system of data set [13] is K562 cells. As to the kind of experiment: Wst-1 cell survival assay. The conditions noted are these: for IC50: Homo sapiens, read-out: IC50, cell survival.
Method: as §3, §4
In data set [14] the test system is Vector MEF cells. Nature of the data set: Wst-1 cell survival assay. The conditions noted are these: Mus musculus, 24 h, read-out: IC50, cell survival.
Method: as §3, §4
The test system of data set [15] is HCT116 cells. As to the kind of experiment: Wst-1 cell survival assay. The conditions noted are these: HCT116, compared to other genotoxic drugs such as Itu.

For orientation: IC50 means the concentration at which inhibition is half-maximal. As for `CS(=O)(=O)O.Cn1cc(C2=C(c3cn(CCCSC(=N)N)c4ccccc34)C(=O)NC2=O)c2ccccc21` [Bisindolylmaleimide IX, 3-[1-[3-(Amidinothio)propyl]-3-indolyl]-4-(1-methyl-3-indolyl)-1H-pyrrole-2,5-dione methanesulfonate], in data set [1], the γH2AX foci formation result is on record as “numerous foci positive for γH2AX”. Also, the “DNA relaxation (topoisomerase) activity of extract from treated cells” value in data set [2] is listed as “partially lost this activity”. In [3], the “topoisomerase activity on addition to the in vitro DNA relaxation reaction” value was “inhibit the topoisomerase activity”. In addition, in data set [4], the “lowest concentration able to activate the DNA damage response” value turned out to be 1.0 µM. In addition, the Erk activation entry in data set [5] was “inhibited Erk activation”. For the same compound, the “phosphorylation of B-Raf” value in data set [6] was “inhibited phosphorylation of B-Raf”. Also, the “body weights of the mice” value in [7] is on record as “not affected”. Further, the tumor size result in data set [7] is on record as “did not go down”. Besides, the growth of tumors entry is “significantly inhibited growth of the tumors” in data set [8] and “significantly inhibited growth of tumors” in [9]. In addition, the cell cycle profile result in data set [10] is “increase in G2/M phase cells and a decrease in S phase cells”. The IC50 was 3.26 µM in data set [11]; 3.83 µM in data set [12] (Mus musculus, 24 h, read-out: IC50, cell survival); 3.72 µM in [13] (K562, 24 h); 3.48 µM in data set [13] (K562, 48 h); 7.37 µM in data set [14]. In addition, the “cytotoxicity (in words)” value is given as “modest cytotoxicity” in data set [12] (MEFs, compared to other genotoxic drugs such as Itu); “highly sensitive” in [13] (K562, Wst-1); “modest cytotoxicity” in data set [15].
